Measured values from patent publication US20130142815A1, “ALPHA-METHYL-TRYPTOPHAN AS AN INHIBITOR OF INDOLEAMINE DIOXYGENASE” (Georiga Health Sciences Univ. Research Inst., Inc., priority 2010, published 2013).
pIC50: −log10 of the molar value. Values belong to the compound of their own block, whether it stands above or below them.

Assays:
MB231 cells = experiment: Mouse xenograft, MB231 ER-negative breast cancer cell line; format: in vivo; conditions: in drinking water (2 mg/ml)
Protocol: (§1) Mouse xenograft studies were performed with two ER-positive breast cancer cell lines (ZR75.1 and MCF7) and one ER-negative breast cancer cell line (MB231). […] Plasma concentration of alpha-methyltryptophan in mice after two weeks of administration in drinking water was […] was not detectable in control mice.

ATB0,+ [1] = molecular target: T1, ATB0,+ (Homo sapiens, UniProt Q9UN76); conditions: cited from earlier work
T1 sequence (Q9UN76 1-642): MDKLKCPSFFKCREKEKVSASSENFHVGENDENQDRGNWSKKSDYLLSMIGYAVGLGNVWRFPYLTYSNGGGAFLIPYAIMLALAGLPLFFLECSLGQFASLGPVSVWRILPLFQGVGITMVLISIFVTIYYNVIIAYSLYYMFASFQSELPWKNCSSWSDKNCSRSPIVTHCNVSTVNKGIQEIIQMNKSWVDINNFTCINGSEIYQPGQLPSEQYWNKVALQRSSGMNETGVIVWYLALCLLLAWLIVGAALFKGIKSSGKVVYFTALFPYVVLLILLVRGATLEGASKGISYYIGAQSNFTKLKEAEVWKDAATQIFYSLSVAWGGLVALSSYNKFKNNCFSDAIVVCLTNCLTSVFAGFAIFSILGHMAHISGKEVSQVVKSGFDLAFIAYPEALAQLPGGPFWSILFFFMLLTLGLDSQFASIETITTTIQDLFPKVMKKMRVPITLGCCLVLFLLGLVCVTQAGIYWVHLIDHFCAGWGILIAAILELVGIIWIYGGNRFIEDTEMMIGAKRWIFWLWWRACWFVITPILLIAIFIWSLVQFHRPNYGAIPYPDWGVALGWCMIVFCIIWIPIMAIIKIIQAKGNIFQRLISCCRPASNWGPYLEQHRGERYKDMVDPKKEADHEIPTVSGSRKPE

[2] = molecular target: T2, indoleamine dioxygenase (IDO) (Mus musculus, UniProt P28776); experiment: Cell-free IDO inhibition assay with mouse intestinal mucosal lysates as the source of IDO; format: biochemical
T2 construct: mouse intestinal mucosal lysates were used as the source of IDO in a cell-free assay system; from tissue; host or cells: mouse intestinal mucosa (lysate)
T2 sequence (P28776 whole entry): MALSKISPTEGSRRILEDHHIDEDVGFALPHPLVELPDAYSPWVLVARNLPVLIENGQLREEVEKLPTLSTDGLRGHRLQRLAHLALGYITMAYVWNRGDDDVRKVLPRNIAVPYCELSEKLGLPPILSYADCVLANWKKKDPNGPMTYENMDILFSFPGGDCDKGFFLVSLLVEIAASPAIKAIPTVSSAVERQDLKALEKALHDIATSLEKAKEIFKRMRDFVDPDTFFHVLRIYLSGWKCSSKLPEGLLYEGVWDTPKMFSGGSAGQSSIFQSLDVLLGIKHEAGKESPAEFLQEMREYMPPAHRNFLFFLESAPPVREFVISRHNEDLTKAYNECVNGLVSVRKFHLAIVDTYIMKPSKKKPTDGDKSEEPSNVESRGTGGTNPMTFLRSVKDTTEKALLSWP
Excerpt: FIG. 1 presents the comparative potencies of D-, L-, and DL-isomers of 1-methyltryptophan (1-MT) and alpha-methyltryptophan (alpha-MT) for inhibition of indoleamine dioxygenase (IDO). […] In these studies, mouse intestinal mucosal lysates were used as the source of IDO in a cell-free assay system. Thus, α-MLT will produce anti-cancer effects in vivo by two different, but synergistic, mechanisms. It will block the transport function of ATB^0,+ in tumor cells, thus preventing entry of essential amino acids and glutamine, and consequently causing growth arrest and apoptosis.

MCF7 cells = experiment: Mouse xenograft, MCF7 ER-positive breast cancer cell line; format: in vivo; conditions: in drinking water (2 mg/ml); in the presence of estrogen administration
Protocol: as §1

mouse colon cancer cells = experiment: Mouse model of colon cancer, subcutaneous injection of mouse colon cancer cells; format: in vivo
Protocol: Further, alpha-methyltryptophan was administered in a mouse model of colon cancer. Following subcutaneous injection of mouse colon cancer cells into mice, mice were treated with alpha-methyltryptophan, either in drinking water or by intraperintoneal injection.

ZR75.1 cells = experiment: Mouse xenograft, ZR75.1 ER-positive breast cancer cell line; format: in vivo; conditions: in drinking water (2 mg/ml)
Protocol: as §1

ATB0,+ [3] = molecular target: T1, ATB0,+; experiment: Inward currents in ATB0,+-expressing Xenopus oocytes; format: cell-based; parameters: expressed in transfected cells; host or cells: Xenopus oocytes
Excerpt: Tryptophan is a substrate for ATB^0,+. […] Inhibition of glycine uptake could occur because α-MT is a transportable substrate for ATB^0,+ thus competing with glycine for the uptake process, or because it blocks the transporter without itself being transported. The Xenopus oocyte expression system can differentiate between these two modes of inhibition because transportable substrates would induce inward currents whereas blockers would not.
Next, the potency of α-MT to block the transporter under conditions that simulate those in vivo was determined (with all naturally occurring amino acids present at physiologic concentrations). ATB^0,+ accepts all proteinogenic amino acids except glutamate and aspartate. Therefore, using the Xenopus oocyte expression system, the transport activity of human ATB^0,+ was monitored in the presence of an amino acid mixture consisting of all proteinogenic amino acids, each at its respective physiologic concentration found in plasma. Inward currents were detected under these conditions in oocytes expressing human ATB^0,+. α-MT blocked the ATB^0,+-mediated inward currents in the presence of these amino acids. The inhibition was dose-dependent; the concentration of the blocker necessary to elicit 50% maximal inhibition was 255±24 μM (Karunakaran et al., 2008, Biochem J; 414: 343-355).
Although α-methyl-DL-tryptophan is a blocker of ATB^0,+, its potency is weak. […] The only commercially available α-methyltryptophan is the DL-form. Thus, an optical resolution method was developed to separate the L-isomer from the DL-form (FIG. 2). With this method, the L- and D-isomers of this compound were purified. The potencies of the two isomers as a blocker of ATB^0,+ was examined in Xenopus oocytes using the amino acid mixture simulating the plasma. The concentration of the L-isomer to elicit 50% maximal inhibition was 18±5 μM. This value is 14 times less than the corresponding value for the DL-form. With the D-isomer, the inhibition never increased beyond 40% even at 1 mM.

ATB0,+ [4] = molecular target: T1, ATB0,+; parameters: expressed in transfected cells; host or cells: Xenopus oocytes; conditions: tells transportable substrate from blocker; cited from earlier work
IDO in DCs = molecular target: T3, IDO in DCs (Mus musculus, UniProt P28776); experiment: Mixed lymphocyte reaction: suppression of CD8+ T cell proliferation by IDO-positive DCs, [3H]thymidine incorporation; format: cell-based
T3 construct: endogenous in cells; host or cells: CD11c+ dendritic cells from a CpG 1826-treated C57Bl6 mouse
T3 sequence (P28776 whole entry): as above
Protocol: This example complements the cell-free in vitro measurements of IDO activity shown in Example 1 with a functional assay involving T cell proliferation. In this assay, CD8^+ T cells from a transgenic mouse (01.1) which carries the T-cell receptor specific for the ovalbumin peptide antigen Ser-Ile-Ile-Asn-Phe-Glu-Lys-Leu (SIINFEKL) were used. CD11c^+ dendritic cells (DCs) were also prepared from a C57B16 mouse that has been given CpG 1826 intravenously to induce IDO in DCs. A mixed lymphocyte reaction was then performed in which the ability of IDO-positive DCs to suppress the proliferation of CD8^+ T cells was monitored using [^3H]thymidine incorporation as the read-out. Thymidine incorporation in these T cells in the absence of DCs was taken as the control. When the T cells were cultured in the presence of IDO-positive DCs (10^5 cells), thymidine incorporation in T cells was suppressed by 63±3%. […] It is important to note that the concentration of α-MLT needed to inhibit IDO in DCs in this cell-based ex-vivo assay system (0.2 μM) is almost two orders of magnitude less than the IC50 observed for the inhibition of IDO in the cell-free assay system (˜20 μM). Based on these findings, it is expected that α-MLT will function as an anti-cancer agent in vivo by acting through two different mechanisms. […]

potency as a blocker of ATB0,+ (in words) (ATB0,+ [3]): weak
Compound: CC(N)(Cc1c[nH]c2ccccc12)C(=O)O (racemic) [α-methyl-DL-tryptophan]
growth of MB231 cells in xenograft (MB231 cells): did not effect the growth
effect on ATB0,+-mediated glycine uptake (ATB0,+ [1]): inhibited
potency as an IDO inhibitor (comparison, FIG. 1) [2]: significantly greater than that of 1-methyltryptophan
growth of MCF7 cells in xenograft (MCF7 cells): did not effect the growth
reduction of tumor growth (mouse colon cancer cells; in drinking water): approximately 50%
reduction of tumor growth (mouse colon cancer cells; intraperitoneal injection): approximately 50%
growth of ZR75.1 cells in xenograft (ZR75.1 cells): reduced growth
induction of inward currents in ATB0,+-expressing Xenopus oocytes (ATB0,+ [4]): did not induce inward currents

pIC50 ([2]; read-out: IC50 observed for the inhibition of IDO in the cell-free assay system): ~4.70
reversal of suppression of thymidine incorporation in T cells by IDO-positive DCs (IDO in DCs; 0.2 μM, IDO-positive DCs (10^5 cells)): completely reversed
concentration needed to inhibit IDO in DCs in cell-based ex-vivo assay system (IDO in DCs; cell-based ex-vivo assay): 0.2 µM
Compound: α-methyl-L-tryptophan [α-MLT]

potency as a blocker of ATB0,+ (in words) (ATB0,+ [3]): more potent than α-methyl-D-tryptophan
times less than the corresponding value for the DL-form (ATB0,+ [3]; 50% maximal inhibition concentration, L-isomer vs DL-form): 14 times
Compound: C[C@](N)(Cc1c[nH]c2ccccc12)C(=O)O [α-MLT, α-methyl-L-tryptophan]
potency as an IDO inhibitor (comparison, FIG. 1) [2]: significantly more potent than the D-isomer

inhibition at 1000 µM (ATB0,+ [3]; even at 1 mM, Xenopus oocytes, amino acid mixture simulating the plasma): ≤ 40%
Compound: C[C@@](N)(Cc1c[nH]c2ccccc12)C(=O)O [D-isomer, α-methyl-D-tryptophan]
